Experiments:
[1] = biological target: human sodium channel Nav 1.8 (Homo sapiens (Human), UniProt Q9Y5Y9); assay: Automated whole-cell voltage-clamp (ScreenPatch 384P), Nav 1.8 sodium current, Protocol 2; assay type: cell-based; details: read-out: Nav1.8 IC50
Summary of the method: (§1)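 CHO cells stably expressing human Nav1.7 or Nav1.8, automated whole-cell clamp, room temperature, ≥5 min exposure at eight concentrations. Protocol 1: hold −90 mV, 0.1 Hz, test pulse 0 mV (Nav1.7) or 10 mV (Nav1.8). Protocol 2: hold −100 mV with 8 s −40 mV inactivating step, 0.05 Hz. IC50 from Hill fit of TP1A peak-current block, normalized to vehicle and positive control.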

[2] = biological target: human sodium channel Nav 1.7 (Homo sapiens (Human), UniProt Q15858); assay: Automated whole-cell voltage-clamp (ScreenPatch 384P), Nav 1.7 sodium current, Protocol 2; assay type: cell-based; details: read-out: Nav1.7 IC50
Summary of the method: as §1

Sequence of human sodium channel Nav 1.7 (Q15858 whole entry): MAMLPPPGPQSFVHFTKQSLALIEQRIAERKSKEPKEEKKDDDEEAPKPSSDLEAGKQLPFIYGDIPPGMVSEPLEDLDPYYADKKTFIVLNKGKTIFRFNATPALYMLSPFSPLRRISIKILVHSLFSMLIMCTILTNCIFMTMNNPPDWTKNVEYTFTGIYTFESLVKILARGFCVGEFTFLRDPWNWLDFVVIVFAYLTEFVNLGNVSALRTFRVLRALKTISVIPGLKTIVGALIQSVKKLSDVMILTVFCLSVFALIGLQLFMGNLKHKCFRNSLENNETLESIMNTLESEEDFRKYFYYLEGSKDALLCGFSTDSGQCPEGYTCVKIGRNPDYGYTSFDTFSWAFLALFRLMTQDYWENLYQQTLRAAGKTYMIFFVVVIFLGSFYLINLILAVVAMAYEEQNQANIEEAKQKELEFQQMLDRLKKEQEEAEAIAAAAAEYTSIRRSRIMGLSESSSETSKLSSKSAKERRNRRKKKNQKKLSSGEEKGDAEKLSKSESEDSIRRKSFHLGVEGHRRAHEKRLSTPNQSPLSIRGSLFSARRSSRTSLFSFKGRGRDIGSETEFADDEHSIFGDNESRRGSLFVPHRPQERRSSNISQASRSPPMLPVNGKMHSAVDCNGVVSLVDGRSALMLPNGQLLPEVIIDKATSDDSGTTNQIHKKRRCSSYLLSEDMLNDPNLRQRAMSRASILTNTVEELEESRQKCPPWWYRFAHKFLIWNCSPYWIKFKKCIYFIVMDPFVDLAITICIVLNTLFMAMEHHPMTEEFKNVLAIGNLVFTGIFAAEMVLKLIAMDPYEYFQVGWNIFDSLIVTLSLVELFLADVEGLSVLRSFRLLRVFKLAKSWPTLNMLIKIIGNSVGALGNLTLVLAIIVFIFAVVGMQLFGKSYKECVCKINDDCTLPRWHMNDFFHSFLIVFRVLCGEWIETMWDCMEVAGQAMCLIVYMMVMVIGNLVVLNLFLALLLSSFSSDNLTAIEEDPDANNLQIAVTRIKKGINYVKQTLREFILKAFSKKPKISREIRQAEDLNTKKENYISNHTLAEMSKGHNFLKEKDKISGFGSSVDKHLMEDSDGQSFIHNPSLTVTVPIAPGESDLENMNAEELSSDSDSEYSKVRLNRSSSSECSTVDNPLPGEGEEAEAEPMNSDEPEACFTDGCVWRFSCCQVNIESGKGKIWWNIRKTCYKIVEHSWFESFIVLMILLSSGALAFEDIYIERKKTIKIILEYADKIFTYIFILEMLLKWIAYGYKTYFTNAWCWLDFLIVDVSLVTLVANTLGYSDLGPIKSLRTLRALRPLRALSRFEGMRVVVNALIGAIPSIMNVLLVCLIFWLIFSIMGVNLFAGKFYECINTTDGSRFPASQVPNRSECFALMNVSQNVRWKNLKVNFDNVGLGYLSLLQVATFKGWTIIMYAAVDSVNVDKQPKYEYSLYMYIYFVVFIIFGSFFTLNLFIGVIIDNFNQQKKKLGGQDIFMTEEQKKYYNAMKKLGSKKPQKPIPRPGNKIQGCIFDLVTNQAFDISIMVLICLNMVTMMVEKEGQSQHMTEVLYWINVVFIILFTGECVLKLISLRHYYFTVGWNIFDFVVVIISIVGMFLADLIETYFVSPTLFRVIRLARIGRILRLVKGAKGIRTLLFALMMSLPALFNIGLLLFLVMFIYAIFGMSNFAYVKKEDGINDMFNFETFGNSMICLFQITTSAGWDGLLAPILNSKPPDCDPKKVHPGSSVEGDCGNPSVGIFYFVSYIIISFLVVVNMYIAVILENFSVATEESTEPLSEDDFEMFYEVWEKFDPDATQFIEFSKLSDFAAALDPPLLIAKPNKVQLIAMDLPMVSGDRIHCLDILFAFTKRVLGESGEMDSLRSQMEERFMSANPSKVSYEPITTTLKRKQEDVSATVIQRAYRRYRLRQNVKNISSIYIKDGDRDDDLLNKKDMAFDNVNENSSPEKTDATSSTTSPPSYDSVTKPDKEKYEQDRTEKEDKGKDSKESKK
Sequence of human sodium channel Nav 1.8 (Q9Y5Y9 whole entry): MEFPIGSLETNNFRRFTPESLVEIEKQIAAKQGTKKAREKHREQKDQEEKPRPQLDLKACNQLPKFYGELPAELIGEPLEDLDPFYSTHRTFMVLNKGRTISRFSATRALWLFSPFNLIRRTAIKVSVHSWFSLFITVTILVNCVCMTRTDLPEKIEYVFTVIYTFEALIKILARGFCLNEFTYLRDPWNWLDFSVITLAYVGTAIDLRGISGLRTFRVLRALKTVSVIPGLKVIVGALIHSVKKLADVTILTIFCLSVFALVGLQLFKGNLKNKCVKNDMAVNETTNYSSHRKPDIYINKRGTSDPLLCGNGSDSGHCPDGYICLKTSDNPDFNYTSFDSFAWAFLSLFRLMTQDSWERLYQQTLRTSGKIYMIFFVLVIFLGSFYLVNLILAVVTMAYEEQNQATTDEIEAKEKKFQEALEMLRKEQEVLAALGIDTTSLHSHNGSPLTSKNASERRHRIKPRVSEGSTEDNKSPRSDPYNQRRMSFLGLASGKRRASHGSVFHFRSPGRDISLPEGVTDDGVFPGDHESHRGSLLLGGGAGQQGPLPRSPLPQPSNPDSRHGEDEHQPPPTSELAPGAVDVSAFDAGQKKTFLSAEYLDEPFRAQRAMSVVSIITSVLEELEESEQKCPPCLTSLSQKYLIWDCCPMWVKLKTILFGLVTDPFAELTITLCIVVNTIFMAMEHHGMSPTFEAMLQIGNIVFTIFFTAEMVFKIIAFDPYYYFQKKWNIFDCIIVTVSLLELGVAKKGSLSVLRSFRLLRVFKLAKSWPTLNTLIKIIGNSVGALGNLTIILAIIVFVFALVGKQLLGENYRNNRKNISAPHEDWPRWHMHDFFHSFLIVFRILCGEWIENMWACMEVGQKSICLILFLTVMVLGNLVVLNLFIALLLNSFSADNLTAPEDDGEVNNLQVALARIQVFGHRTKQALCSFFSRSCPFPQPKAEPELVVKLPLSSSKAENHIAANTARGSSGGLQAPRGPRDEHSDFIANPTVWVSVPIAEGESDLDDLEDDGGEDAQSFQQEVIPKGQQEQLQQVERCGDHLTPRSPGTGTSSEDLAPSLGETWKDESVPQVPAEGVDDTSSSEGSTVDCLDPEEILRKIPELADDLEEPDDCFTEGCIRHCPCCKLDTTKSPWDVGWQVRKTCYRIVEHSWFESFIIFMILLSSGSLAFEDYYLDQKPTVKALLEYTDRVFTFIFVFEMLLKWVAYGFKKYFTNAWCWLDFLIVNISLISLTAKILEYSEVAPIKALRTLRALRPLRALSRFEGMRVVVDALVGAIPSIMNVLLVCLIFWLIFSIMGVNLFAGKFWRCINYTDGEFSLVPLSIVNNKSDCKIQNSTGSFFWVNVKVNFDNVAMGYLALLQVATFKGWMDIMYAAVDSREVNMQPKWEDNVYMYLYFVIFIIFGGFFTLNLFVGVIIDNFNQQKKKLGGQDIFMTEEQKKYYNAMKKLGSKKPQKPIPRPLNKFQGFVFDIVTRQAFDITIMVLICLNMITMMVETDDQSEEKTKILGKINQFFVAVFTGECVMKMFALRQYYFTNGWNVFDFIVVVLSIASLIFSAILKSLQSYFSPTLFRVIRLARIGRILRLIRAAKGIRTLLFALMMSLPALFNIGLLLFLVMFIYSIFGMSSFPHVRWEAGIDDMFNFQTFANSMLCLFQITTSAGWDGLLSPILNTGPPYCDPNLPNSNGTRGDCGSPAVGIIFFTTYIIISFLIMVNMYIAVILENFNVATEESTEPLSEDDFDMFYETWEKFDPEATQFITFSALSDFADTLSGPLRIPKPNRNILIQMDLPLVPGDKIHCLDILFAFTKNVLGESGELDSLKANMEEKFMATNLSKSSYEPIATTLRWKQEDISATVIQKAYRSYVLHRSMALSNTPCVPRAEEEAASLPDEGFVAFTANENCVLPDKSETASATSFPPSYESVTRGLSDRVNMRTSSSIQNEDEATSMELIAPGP

Row | IC50 [1] [nM] | IC50 [2] [nM] | SMILES
1 | > 1000 | > 10000 | COc1cc(/C=N/NC(=O)c2nccnc2Cl)cc(OC)c1 [Compound 165, (E)-3-chloro-N′-(3,5-dimethoxybenzylidene)pyrazine-2-carbohydrazide]
2 | > 1000 | > 10000 | CCc1cnc(C(=O)N/N=C/c2cc(OC)cc(OC)c2)cn1 [Compound 167, (E)-N′-(3,5-dimethoxybenzylidene)-5-ethylpyrazine-2-carbohydrazide]
3 | > 1000 | > 10000 | COc1ccc(-c2cncc(C(=O)N(C)/N=C/c3cc(OC)cc(OC)c3)n2)cc1 [Compound 168, (E)-N′-(3,5-dimethoxybenzylidene)-6-(4-methoxyphenyl)-N-methylpyrazine-2-carbohydrazide]
4 | > 1000 | > 10000 | COc1cc(/C=N/NC(=O)c2cncc(N3CCC(F)(F)C(C)C3)n2)cc(OC)c1 (stereo not shown) [Compound 169, (E)-6-(4,4-difluoro-3-methylpiperidin-1-yl)-N′-(3,5-dimethoxybenzylidene)pyrazine-2-carbohydrazide]
5 | > 1000 | > 10000 | CCOc1ccc(-c2cncc(C(=O)N/N=C/c3ccccc3)n2)cc1 [Compound 170, (E)-N′-benzylidene-6-(4-ethoxyphenyl)pyrazine-2-carbohydrazide]
6 | > 1000 | > 10000 | CCOc1ccc(-c2cncc(C(=O)N/N=C/C3CCCCC3)n2)cc1 [Compound 171, (E)-N′-(cyclohexylmethylene)-6-(4-ethoxyphenyl)pyrazine-2-carbohydrazide]
7 | 573 | > 10000 | CCOc1ccc(-c2cncc(C(=O)N/N=C/C3CCC(F)(F)CC3)n2)cc1 [Compound 172, (E)-N′-((4,4-diflurocyclohexyl)methylene)-6-(4-ethoxyphenyl)pyrazine-2-carbohydrazide]
8 | 629 | > 10000 | COc1ccc(-c2cncc(C(=O)N/N=C/C3CCCCC3)n2)cc1 [Compound 173, (E)-N′-(cyclohexylmethylene)-6-(4-methoxyphenyl)pyrazine-2-carbohydrazide]
9 | 361 | 110 | CC(C)Oc1ccc(-c2cncc(C(=O)N/N=C/C3CCCCC3)n2)cc1 [Compound 175, (E)-N′-(cyclohexylmethylene)-6-(4-isopropoxyphenyl)pyrazine-2-carbohydrazide]
10 | 963 | > 1000 | COc1cc(/C=N/NC(=O)c2cncc(-c3ccc(C(F)F)cc3)n2)cc(OC)c1 [Compound 177, (E)-6-(4-(difluoromethyl)phenyl)-N′-(3,5-dimethoxybenzylidene)pyrazine-2-carbohydrazide]
11 | 358 | 3190 | COc1ccc(-c2cncc(C(=O)N/N=C/c3ccccc3)n2)cc1 [Compound 178, (E)-N′-benzylidene-6-(4-methoxyphenyl)pyrazine-2-carbohydrazide]
12 | > 1000 | > 10000 | COc1cc(/C=N/NC(=O)c2cncc(N3CCCC(F)(F)CC3)n2)cc(OC)c1 [Compound 179, (E)-6-(4,4-difluoroazepan-1-yl)-N′-(3,5-dimethoxybenzylidene)pyrazine-2-carbohydrazide]
13 | > 1000 | > 10000 | COc1cc(/C=N/NC(=O)c2cncc(N3CCC(F)(F)CC3)n2)cc(OC)c1 [Compound 180, (E)-6-(4,4-difluoropiperidin-1-yl)-N′-(3,5-dimethoxybenzylidene)pyrazine-2-carbohyrazide]
14 | 320 | 6410 | COc1ccc(-c2cncc(C(=O)N/N=C/C3CCCCCC3)n2)cc1 [Compound 181, (E)-N′-(cycloheptylmethylene)-6-(4-methoxyphenyl)pyrazine-2-carbohydrazide]
15 | 300 | > 10000 | CCOc1ccc(-c2cncc(C(=O)N/N=C/C3CCCCCC3)n2)cc1 [Compound 182, (E)-N′-(cycloheptylmethylene)-6-(4-ethoxyphenyl)pyrazine-2-carbohyrazide]
16 | 231 | 256 | CC(C)Oc1ccc(-c2cncc(C(=O)N/N=C/C3CCCCCC3)n2)cc1 [Compound 183, (E)-N′-(cycloheptylmethylene)-6-(4-isopropoxyphenyl)pyrazine-2-carbohyazide]

Row | IC50 [1] [nM] | IC50 [2] [nM] | SMILES
17 | 398 | > 10000 | COc1cc(/C=N/NC(=O)c2cncc(-c3ccc(OC)nc3)n2)cc(OC)c1 [Compound 184, (E)-N′-(3,5-dimethoxybenzylidene)-6-(6-methoxypyridin-3-yl)pyrazine-2-carbohydrazide]
18 | 496 | 219 | CCOc1ccc(-c2cncc(C(=O)N/N=C/c3cc(OC)cc(OC)c3)n2)c(C(F)(F)F)c1 [Compound 187]
19 | > 1000 | > 10000 | CCOc1ccc(-c2cncc(C(=O)N/N=C/c3ccc(C(=O)NS(C)(=O)=O)cc3)n2)cc1 [Compound 188, (E)-4-((2-(6-(4-ethoxyphenyl)pyrazine-2-carbonyl)hydrazinalidene)methyl)-N-(methylsulfonyl)benzamide]
20 | > 1000 | > 10000 | COc1cc(/C=N/NC(=O)c2cncc(-c3ccc(C(=O)NS(C)(=O)=O)cc3)n2)cc(OC)c1 [Compound 190, (E)-4-(6-(2-(3,5-dimethoxybenzylidene)hydrazine-1-carbonyl)pyrazin-2-yl)-N-(methylsulfonyl)benzamide]
21 | > 1000 | 3200 | CCOc1ccc(-c2cncc(C(=O)N/N=C/c3ccccc3CS(C)(=O)=O)n2)cc1 [Compound 191, (E)-6-(4-ethoxyphenyl)-N′-(2-((methylsulfonyl)methyl)benzylidene)pyrazine-2-carbohydrazide]
22 | 952 | 7220 | CCOc1ccc(-c2cncc(C(=O)N/N=C/c3ccccc3S(C)(=O)=O)n2)cc1 [Compound 192]
23 | > 1000 | > 10000 | CCOc1ccc(-c2cncc(C(=O)N/N=C/c3ccccc3NS(C)(=O)=O)n2)cc1 [Compound 193, (E)-N-(2-((2-(6-(4-ethoxyphenyl)pyrazine-2-carbonyl)hydrazinalidene)methyl)phenyl)methanesulfonamide]
24 | 166 | 1740 | CC1=C(/C=N/NC(=O)c2cncc(-c3ccc(OC(C)C)cc3)n2)CCCC1 [Compound 199, (E)-6-(4-isopropoxyphenyl)-N′-((2-methylcyclohept-1-en-1-yl)methylene)pyrazine-2-carbohydrzide]
25 | 129 | 2650 | COc1ccc(-c2cncc(C(=O)N/N=C/C3=C(C)CCCCC3)n2)cc1 [Compound 200]
26 | 93 | 107 | CC1=C(/C=N/NC(=O)c2cncc(-c3ccc(OC(C)C)cc3)n2)CCCCC1 [Compound 202, (E)-6-(4-isopropoxyphenyl)-N′-((2-methylcyclohept-1-en-1-yl)methylene)pyrazine-2-carbohydrazide]
27 | > 1000 | > 10000 | CCOc1ccc(-c2nc(C(=O)N/N=C/c3cc(OC)cc(OC)c3)cnc2N)cc1 [Compound 206, (E)-5-amino-N′-(3,5-dimethoxybenzylidene)-6-(4-ethoxyphenyl)pyrazine-2-carbohydrazide]
28 | 189 | 2470 | CCOc1ccc(-c2nc(C(=O)N/N=C/c3cc(OC)cc(OC)c3)cnc2Cl)cc1 [Compound 209, (E)-5-chloro-N′-(3,5-dimethoxybenzylidene)-6-(4-ethoxyphenyl)pyrazine-2-carbohydrazide]
29 | 680 | > 10000 | CCOc1ccc(-c2nc(C(=O)N/N=C/c3cc(OC)cc(OC)c3)cnc2C(F)(F)F)cc1 [Compound 210, (E)-N′-(3,5-dimethoxybenzylidene)-6-(4-ethoxyphenyl)-5-(trifluoromethyl)pyrazine-2-carbohydrazide]
30 | > 1000 | > 10000 | CCOc1ccc(-c2nc(C(=O)N/N=C/c3cc(OC)cc(OC)c3)cnc2OCC)cc1 [Compound 212, (E)-N′-(3,5-dimethoxybenzylidene)-5-ethoxy-6-(4-ethoxyphenyl)pyrazine-2-carbohydrazide]
31 | > 1000 | > 10000 | CCOc1cc(C)c(-c2cncc(C(=O)N/N=C/c3cccc(OC)c3)n2)c(C)c1 [Compound 213, (E)-6-(4-ethoxy-2,6-diemthylphenyl)-N′-(3-methoxybenzylidene)pyrazine-2-carbohydrazide]
32 | > 1000 | > 10000 | CCOc1ccc(-c2cncc(C(=O)N/N=C/c3cc(CCO)cc(OC)c3)n2)cc1 [Compound 214]

— US20240335442A1 (Eurofarma Laboratórios S.A., priority 2021, published 2024)
